In test [1] the target is Glycogen synthase kinase-3 beta (Homo sapiens, UniProt P49841). Description: TR-FRET Assay. An outline of the steps:
(§1)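 Kinase activity, measured after a 30-minute compound preincubation, was stopped with EDTA and quantified by TR-FRET using a Tb-labelled pSer641 antibody paired with streptavidin-d2.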
Background: Time-resolved FRET reads energy transfer from a long-lived donor to a nearby acceptor.

Test [2] concerns the target Glycogen synthase kinase-3 alpha (Homo sapiens, UniProt P49840). Nature of the test: TR-FRET Assay. An outline of the steps:
as §1

The record followed here is BindingDB's records for patent US20250313563 (The Broad Institute, 2025).

“And” between values parts separate entries of the source, which are not always exact repeats. Equal entries are not always repeated. Bounds are passed on as bounds.

Glycogen synthase kinase-3 beta, sequence (P49841 whole entry): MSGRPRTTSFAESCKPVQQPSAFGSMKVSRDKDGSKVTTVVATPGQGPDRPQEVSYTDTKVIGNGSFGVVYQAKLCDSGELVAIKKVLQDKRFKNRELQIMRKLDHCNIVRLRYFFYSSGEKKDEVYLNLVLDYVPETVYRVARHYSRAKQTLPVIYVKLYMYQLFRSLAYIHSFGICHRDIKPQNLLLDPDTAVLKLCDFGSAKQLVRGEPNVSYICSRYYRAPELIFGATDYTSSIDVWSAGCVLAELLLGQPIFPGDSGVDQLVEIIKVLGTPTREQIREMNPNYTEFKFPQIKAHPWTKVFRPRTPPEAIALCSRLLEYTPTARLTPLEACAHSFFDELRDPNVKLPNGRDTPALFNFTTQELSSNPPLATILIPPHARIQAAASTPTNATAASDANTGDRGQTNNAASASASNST
Glycogen synthase kinase-3 alpha, sequence (P49840 whole entry): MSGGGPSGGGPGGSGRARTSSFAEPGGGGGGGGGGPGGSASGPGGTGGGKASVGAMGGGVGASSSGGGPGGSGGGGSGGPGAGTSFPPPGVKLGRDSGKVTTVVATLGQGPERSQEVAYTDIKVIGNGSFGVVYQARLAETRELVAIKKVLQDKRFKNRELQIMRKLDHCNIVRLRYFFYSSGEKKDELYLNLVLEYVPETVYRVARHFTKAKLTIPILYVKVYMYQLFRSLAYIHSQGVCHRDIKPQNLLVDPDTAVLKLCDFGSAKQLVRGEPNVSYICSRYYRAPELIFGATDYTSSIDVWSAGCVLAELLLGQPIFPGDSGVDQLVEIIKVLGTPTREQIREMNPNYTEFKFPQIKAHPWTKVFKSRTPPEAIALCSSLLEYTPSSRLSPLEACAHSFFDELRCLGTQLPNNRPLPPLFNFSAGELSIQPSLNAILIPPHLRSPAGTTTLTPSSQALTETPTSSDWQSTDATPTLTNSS

Turning to `CC1(C)CC(=O)C2=C(C1)NC1=C(CN=N1)C21CCN(S(=O)(=O)c2ccc(C(F)F)cc2)CC1` [US20250313563, Compound 947248], the 50% inhibitory concentration (IC50) in test [1] and in test [2] was less than 100 nM throughout.

`CC1(C)CC(=O)C2=C(C1)NC1=C(CN=N1)C21CCN(S(=O)(=O)c2cccc(Cl)c2Cl)CC1` [US20250313563, Compound 947249]: the IC50 in test [1] and in test [2] was less than 100 nM in each case.

As to `COCc1ccc(S(=O)(=O)N2CCC3(CC2)C2=C(N=NC2)NC2=C3C(=O)CC(C)(C)C2)cc1` [US20250313563, Compound 947250], the IC50 in test [1] and in test [2] was less than 100 nM throughout.

Regarding `CC1(C)CC(=O)C2=C(C1)NC1=C(CN=N1)C21CCN(S(=O)(=O)c2ccc(F)cn2)CC1` [US20250313563, Compound 947251], the IC50 in test [1] and in test [2] was 100 to 1000 nM in each case.

In the case of `CCc1ncc(S(=O)(=O)N2CCC3(CC2)C2=C(N=NC2)NC2=C3C(=O)CC(C)(C)C2)s1` [US20250313563, Compound 947252], the IC50 in test [1] and in test [2] was less than 100 nM throughout.

On to `CCOc1cccc(S(=O)(=O)N2CCC3(CC2)C2=C(N=NC2)NC2=C3C(=O)CC(C)(C)C2)c1` [US20250313563, Compound 947253], for which the IC50 was < 100 nM and 1000 to 5000 nM in test [1]; < 100 nM and 100 to 1000 nM in test [2].

As to `CC1(C)CC(=O)C2=C(C1)NC1=C(CN=N1)C21CCN(S(=O)(=O)c2cccc(C#N)c2)CC1` [US20250313563, Compound 947254], the IC50 in test [1] was < 100 nM and 100 to 1000 nM; in test [2], less than 100 nM.

As to `COc1ccc(S(=O)(=O)N2CCC3(CC2)C2=C(N=NC2)NC2=C3C(=O)CC(C)(C)C2)c(F)c1` [US20250313563, Compound 947255], the IC50 in test [1] was < 100 nM and 100 to 1000 nM; in test [2] it was less than 100 nM.

`CC1(C)CC(=O)C2=C(C1)NC1=C(CN=N1)C21CCN(S(=O)(=O)c2ccc(C(F)(F)F)cc2)CC1` [US20250313563, Compound 947256]: the IC50 in test [1] and in test [2] was less than 100 nM in each case.

In the case of `Cc1nn(C)c(C)c1S(=O)(=O)N1CCC2(CC1)C1=C(N=NC1)NC1=C2C(=O)CC(C)(C)C1` [US20250313563, Compound 947257], the IC50 in test [1] was 1000 to 5000 nM; in test [2] it was 100 to 1000 nM.

In the case of `CC(C)n1ccc(S(=O)(=O)N2CCC3(CC2)C2=C(N=NC2)NC2=C3C(=O)CC(C)(C)C2)n1` [US20250313563, Compound 947258], the half-maximal inhibitory concentration (IC50) in test [1] and in test [2] was less than 100 nM each time.

As to `Cc1nc(C)c(S(=O)(=O)N2CCC3(CC2)C2=C(N=NC2)NC2=C3C(=O)CC(C)(C)C2)s1` [US20250313563, Compound 947259], the half-inhibitory concentration (IC50) in test [1] and in test [2] was less than 100 nM in each case.

Consider `COc1ncccc1S(=O)(=O)N1CCC2(CC1)C1=C(N=NC1)NC1=C2C(=O)CC(C)(C)C1` [US20250313563, Compound 947260], for which the IC50 was < 100 nM and 100 to 1000 nM in test [1]; less than 100 nM in test [2].

`Cc1cccc(S(=O)(=O)N2CCC3(CC2)C2=C(N=NC2)NC2=C3C(=O)CC(C)(C)C2)c1` [US20250313563, Compound 947261]: the half-maximal inhibitory concentration (IC50) in test [1] and in test [2] was less than 100 nM throughout.

`CC1(C)CC(=O)C2=C(C1)NC1=C(CN=N1)C21CCN(S(=O)(=O)c2cc(F)ccn2)CC1` [US20250313563, Compound 947262]: the half-inhibitory concentration (IC50) in test [1] and in test [2] was 100 to 1000 nM each time.

`COc1cc(S(=O)(=O)N2CCC3(CC2)C2=C(N=NC2)NC2=C3C(=O)CC(C)(C)C2)ccc1F` [US20250313563, Compound 947263]: the concentration for half-maximal inhibition (IC50) in test [1] is < 100 nM and 1000 to 5000 nM; in test [2], < 100 nM and 100 to 1000 nM.

Take `CC1(C)CC(=O)C2=C(C1)NC1=C(CN=N1)C21CCN(S(=O)(=O)c2cccc(C(F)F)c2)CC1` [US20250313563, Compound 947264]: the IC50 in test [1] was < 100 nM and 100 to 1000 nM; in test [2], less than 100 nM.

Regarding `CC1(C)CC(=O)C2=C(C1)NC1=C(CN=N1)C21COC2(CN(C(=O)C3CCC(F)(F)C3)C2)C1` (stereo not given) [US20250313563, Compound 947265], the IC50 was 100 to 1000 nM in test [1] and less than 100 nM in test [2].

For the compound `CC1CC(C(=O)N2CC3(C2)CC2(CO3)C3=C(N=NC3)NC3=C2C(=O)CC(C)(C)C3)C1` (stereo not given) [US20250313563, Compound 947266], the IC50 in test [1] and in test [2] was less than 100 nM in each case.

With `CC1(C)CC(=O)C2=C(C1)NC1=C(CN=N1)C21COC2(CN(C(=O)C3CCC(F)CC3)C2)C1` (stereo not given) [US20250313563, Compound 947267], the IC50 in test [1] is 100 to 1000 nM; in test [2] it was less than 100 nM.

`CC1CCC(C(=O)N2CC3(C2)CC2(CO3)C3=C(N=NC3)NC3=C2C(=O)CC(C)(C)C3)C1` (stereo not given) [US20250313563, Compound 947268]: the IC50 in test [1] and in test [2] was less than 100 nM each time.

Regarding `CC1CCC(CC(=O)N2CC3(C2)CC2(CO3)C3=C(N=NC3)NC3=C2C(=O)CC(C)(C)C3)C1` (stereo not given) [US20250313563, Compound 947269], the IC50 is < 100 nM and 100 to 1000 nM in test [1]; < 100 nM and 100 to 1000 nM in test [2].

As for `CCC(C)C(=O)N1CC2(C1)CC1(CO2)C2=C(N=NC2)NC2=C1C(=O)CC(C)(C)C2` (stereo not given) [US20250313563, Compound 947270], the IC50 in test [1] is 100 to 1000 nM; in test [2] it was less than 100 nM.

`CC1(C)CC(=O)C2=C(C1)NC1=C(CN=N1)C21COC2(CN(C(=O)C3(C)CC(F)C3)C2)C1` (stereo not given) [US20250313563, Compound 947271]: the IC50 in test [1] is 100 to 1000 nM; in test [2], less than 100 nM.

In the case of `CC1(C)CC(=O)C2=C(C1)NC1=C(CN=N1)C21COC2(CN(C(=O)C3CC3(F)F)C2)C1` (stereo not given) [US20250313563, Compound 947272], the IC50 in test [1] and in test [2] was less than 100 nM throughout.

With `CC(C)C1CC(C(=O)N2CC3(C2)CC2(CO3)C3=C(N=NC3)NC3=C2C(=O)CC(C)(C)C3)C1` (stereo not given) [US20250313563, Compound 947273], the IC50 in test [1] and in test [2] was less than 100 nM throughout.

Consider `CC1CCCC1C(=O)N1CC2(C1)CC1(CO2)C2=C(N=NC2)NC2=C1C(=O)CC(C)(C)C2` (stereo not given) [US20250313563, Compound 947274], for which the IC50 in test [1] was 100 to 1000 nM; in test [2] it was less than 100 nM.

Consider `CC1(C)CC(=O)C2=C(C1)NC1=C(CN=N1)C21COC2(CN(C(=O)C(C)(F)F)C2)C1` (stereo not given) [US20250313563, Compound 947275], for which the IC50 in test [1] is < 100 nM and 100 to 1000 nM; in test [2] it was < 100 nM and 100 to 1000 nM.

As to `CC1(C)CC(=O)C2=C(C1)NC1=C(CN=N1)C21COC2(CN(C(=O)C(C)(C)F)C2)C1` (stereo not given) [US20250313563, Compound 947276], the IC50 in test [1] and in test [2] was less than 100 nM each time.

`CC1(C)CC(=O)C2=C(C1)NC1=C(CN=N1)C21COC2(CN(C(=O)C3(F)CCCC3)C2)C1` (stereo not given) [US20250313563, Compound 947277]: the concentration for half-maximal inhibition (IC50) in test [1] and in test [2] was less than 100 nM each time.

With `CC1(C)CC(=O)C2=C(C1)NC1=C(CN=N1)C21COC2(CN(C(=O)CC3CC(F)(F)C3)C2)C1` (stereo not given) [US20250313563, Compound 947278], the IC50 in test [1] and in test [2] was less than 100 nM in each case.

Turning to `CC1(C)CC(=O)C2=C(C1)NC1=C(CN=N1)C21COC2(CN(C(=O)C3(F)CCC3)C2)C1` (stereo not given) [US20250313563, Compound 947279], the IC50 in test [1] and in test [2] was less than 100 nM throughout.

Take `CC1(C)CC(=O)C2=C(C1)NC1=C(CN=N1)C21COC2(CN(C(=O)C(F)(F)F)C2)C1` (stereo not given) [US20250313563, Compound 947280]: the IC50 in test [1] and in test [2] was less than 100 nM throughout.

Turning to `Cc1ccc(CC(=O)N2CC3(C2)CC2(CO3)C3=C(N=NC3)NC3=C2C(=O)CC(C)(C)C3)cc1` (stereo not given) [US20250313563, Compound 947281], the IC50 in test [1] was < 100 nM and 100 to 1000 nM; in test [2], < 100 nM and 100 to 1000 nM.

`CC1(C)CC(=O)C2=C(C1)NC1=C(CN=N1)C21COC2(CN(C(=O)C3CC(C)(C)C3)C2)C1` (stereo not given) [US20250313563, Compound 947282]: the results for the IC50 in test [1] and in test [2] were 100 to 1000 nM and less than 100 nM, respectively.

On to `CC1(C)CC(=O)C2=C(C1)NC1=C(CN=N1)C21COC2(CN(C(=O)c3cccc(F)c3)C2)C1` (stereo not given) [US20250313563, Compound 947283], for which the concentration for half-maximal inhibition (IC50) in test [1] and in test [2] was less than 100 nM throughout.

Regarding `Cc1cccc(C(=O)N2CC3(C2)CC2(CO3)C3=C(N=NC3)NC3=C2C(=O)CC(C)(C)C3)c1C` (stereo not given) [US20250313563, Compound 947284], the half-maximal inhibitory concentration (IC50) was 100 to 1000 nM in test [1] and less than 100 nM in test [2].

`Cc1ccc(C)c(C(=O)N2CC3(C2)CC2(CO3)C3=C(N=NC3)NC3=C2C(=O)CC(C)(C)C3)c1` (stereo not given) [US20250313563, Compound 947285]: the IC50 in test [1] is 100 to 1000 nM; in test [2], less than 100 nM.

For the compound `Cc1ccc(C(=O)N2CC3(C2)CC2(CO3)C3=C(N=NC3)NC3=C2C(=O)CC(C)(C)C3)cc1C` (stereo not given) [US20250313563, Compound 947286], the IC50 in test [1] and in test [2] was less than 100 nM each time.

For `Cc1ccccc1C(=O)N1CC2(C1)CC1(CO2)C2=C(N=NC2)NC2=C1C(=O)CC(C)(C)C2` (stereo not given) [US20250313563, Compound 947287], the IC50 is 100 to 1000 nM in test [1] and less than 100 nM in test [2].

On to `CC1(C)CC(=O)C2=C(C1)NC1=C(CN=N1)C21COC2(CN(C(=O)C3CCC3)C2)C1` (stereo not given) [US20250313563, Compound 947288], for which the IC50 in test [1] is < 100 nM and 100 to 1000 nM; in test [2], < 100 nM and 100 to 1000 nM.

Turning to `CC1(C)CC(=O)C2=C(C1)NC1=C(CN=N1)C21COC2(CN(C(=O)c3ccccc3F)C2)C1` (stereo not given) [US20250313563, Compound 947289], the IC50 in test [1] and in test [2] was less than 100 nM each time.

`Cc1ccc(C(=O)N2CC3(C2)CC2(CO3)C3=C(N=NC3)NC3=C2C(=O)CC(C)(C)C3)cc1` (stereo not given) [US20250313563, Compound 947290]: the IC50 in test [1] and in test [2] was less than 100 nM throughout.

Consider `CC1(C)CC(=O)C2=C(C1)NC1=C(CN=N1)C21COC2(CN(C(=O)C3CCCCC3)C2)C1` (stereo not given) [US20250313563, Compound 947291], for which the half-maximal inhibitory concentration (IC50) in test [1] was 100 to 1000 nM; in test [2] it was less than 100 nM.

`CC1(C)CC(=O)C2=C(C1)NC1=C(CN=N1)C21COC2(CN(C(=O)c3ccc(F)cc3)C2)C1` (stereo not given) [US20250313563, Compound 947292]: the IC50 in test [1] and in test [2] was less than 100 nM in each case.

One may read the IC50 as the midpoint of a concentration-inhibition curve. A low value points to inhibition by little substance.
